Tests used:
Format in all cases: in vivo
[1] = tested on: antibody forming capacities; assay: Antibody forming capacity (PFC-SRBC) in mice immunosuppressed with cyclophosphamide; settings: BDF1 mice; Cyclophosphamide (22.5 mg/kg) i.p. + Saline
Procedure: Female BDF1 (8 weeks in age) mice were injected intraperitoneally with cyclophosphamide (22.5 mg/kg) 4 days before immunization with 5 x 10^8 SRBC. Samples were administered to mice i.p. from four days before immunization, every day for five days.
Mouse splenic lymphocytes producing antibody against SRBC were quantitated by using Cunningham modification method described previously.

[2] = tested on: thymus; assay: Dexamethasone-induced thymus atrophy in mice; settings: ddY mice; dexamethasone 1 ug/ml in drinking water, no sample; n=5
Procedure: Five week-old ddY mice(male) were used. Samples were given subcutaneously twice per day from day 0 to day 2 of the experiment. Five hours after first medication on day 0, mice were supplied with drinking water containing 1 ug/ml of dexamethasone.
At day 2, the weight of thymus of the treated mice was compared with that of the nontreated controls.

[3] = tested on: antibody forming capacities; assay: Antibody forming capacity (PFC-SRBC) in mice immunosuppressed with mitomycin C; settings: BDF1 mice; Mitomycin C (1.0 mg/kg) i.p. + Saline
Procedure: Female BDF1 (8 weeks in age) mice were injected intraperitoneally with mitomycin C (1 mg/kg) from four days before immuization with 5 x 10^8 SRBC, every day for three days. Samples also were administered to mice intraperitoneally from four days before immunization, every day for five days.
At day 9, mice were sacrificed and the number of direct plaque forming cells per spleen was measured by using Cunningham modification method.

## O=P1(N(CCCl)CCCl)NCCCO1 (stereo not drawn) [Cyclophosphamide, reference compound]
[1]
  PFC-SRBC/spleen (average number of 5 mice/group): 8.46 x 10^4 PFC-SRBC/spleen

## C[C@@H]1C[C@H]2[C@@H]3CCC4=CC(=O)C=C[C@]4(C)[C@@]3(F)[C@@H](O)C[C@]2(C)[C@@]1(O)C(=O)CO [Dexamethasone, reference compound]
[2]
  Thymus weight: 57.2 mg/mouse

## CO[C@@]12[C@H](COC(N)=O)C3=C(C(=O)C(C)=C(N)C3=O)N1C[C@@H]1N[C@@H]12 [Mitomycin C, reference compound]
[3]
  PFC-SRBC/spleen (average number of 5 mice/group): 12.65 x 10^4 PFC-SRBC/spleen

— EP0104826A2, “Immunomodulator and method of use for immunomodulation” (FUJISAWA PHARMACEUTICAL CO., LTD., priority 1982, dated 1984)
